Assay results from US5824687A, “Pyridinium salts and their use for the control of helicobacter bacteria” (BYK Gulden Lomberg Chemische Fabrik GmbH, priority 1993, dated 1998).

Test system: Helicobacter pylori
Assay: Activity against Helicobacter pylori (MIC, Columbia agar (Oxoid), growth period of 4 days)
Assay type: cell-based
Settings: 96 h, methodology of Tomoyuki Iwahi et al.
Description: The compounds according to the invention were investigated with respect to their activity against Helicobacter pylori following the methodology described by Tomoyuki Iwahi et al. (Antimicrobial Agents and Chemotherapy,1991, 490-496) using Columbia agar (Oxoid) and with a growth period of 4 days.

Compound	MIC
Cc1c(C)[n+]2cccc(OCc3ccccc3)c2n1Cc1ccc(F)cc1 [Compound 3, 8-Benzyloxy-1-(4-fluorobenzyl)-2,3-dimethylimidazo-[1,2-a]pyridinium bromide]	≤ 10 µg/mL
Cc1c(C)[n+]2cccc(OCc3ccccc3)c2n1Cc1ccc(-c2ccccc2)cc1 [Compound 18, 8-Benzyloxy-1-(4-biphenylmethyl)-2,3-dimethylimidazo[1,2-a]pyridinium bromide]	≤ 10 µg/mL
Cc1c(C)[n+]2cccc(OCc3ccccc3)c2n1CCc1ccccc1 [Compound 5, 8-Benzyloxy-2,3-dimethyl-1-phenethylimidazo[1,2-a]pyridinium bromide]	≤ 10 µg/mL
Cc1c(C)[n+]2cccc(OCc3ccccc3)c2n1Cc1ccc2ccccc2c1 [Compound 12, 8-Benzyloxy-2,3-dimethyl-1-(2-naphthylmethyl)imidazo[1,2-a]pyridinium bromide]	≤ 10 µg/mL
C#CCc1c(C)n(CCc2ccccc2)c2c(OCc3ccccc3)ccc[n+]12 [Compound 7, 8-Benzyloxy-2-methyl-1-phenethyl-3-(2-propynyl)imidazo[1,2-a]pyridiniumbromide]	≤ 10 µg/mL
Cc1c(C)[n+]2cccc(OCc3ccccc3)c2n1Cc1cccc(C#N)c1 [Compound 13, 8-Benzyloxy-1-(3-cyanobenzyl)-2,3-dimethylimidazo[1,2-a]pyridinium bromide]	≤ 10 µg/mL
COC(=O)c1ccc(Cn2c(C)c(C)[n+]3cccc(OCc4ccccc4)c23)cc1 [Compound 4, 8-Benzyloxy-1-(4-methoxycarbonylbenzyl)-2,3-dimethylimidazo[1,2-a]pyridinium bromide]	≤ 10 µg/mL
Cc1c(C)[n+]2cccc(OCc3ccccc3)c2n1Cc1cc(F)cc(F)c1 [Compound 10, 8-Benzyloxy-1-(3,5-difluorobenzyl)-2,3-dimethylimidazo[1,2-a]pyridiniumbromide]	≤ 10 µg/mL
Cc1c(CC#N)[n+]2cccc(OCc3ccccc3)c2n1CCc1ccccc1 [Compound 6, 8-Benzyloxy-3-cyanomethyl-2-methyl-1-phenethylimidazo[1,2-a]pyridinium bromide]	≤ 10 µg/mL
